In patent US20120283321A1, “USE OF GAMBIEROL FOR TREATING AND/OR PREVENTING NEURODEGENERATIVE DISEASES RELATED TO TAU AND BETA-AMYLOID” (Universidade De Santiago De Compostela, priority 2009, published 2012):
“Also recorded” adds a separate entry of the source.

Legend:
[1] = test system: phosphorylated Tau at Thr 212 and Ser 214; test: Western Blot of phosphorylated tau at Thr 212 and Ser 214 (AT100 antibody) in cortical neurons from triple transgenic mice; type: cell-based; settings: 10 μM gambierol between days 3 and 7 of culture; 3×Tg cultures; p<0.05, n=3
Text: (§1) In order to perform the experiments of the present invention, one of the following were used: an in vitro cortical neuron model with simultaneous overexpression of tau and β-amyloid obtained from an Alzheimer's disease model in triple transgenic mice (3×Tg−AD or 3×Tg), obtainable by means of the process explained in international application WO2003/053136 and provided by the holders of said application, or an in vitro cortical neuron model obtained from non-transgenic mice (No Tg). […]
(§2) In order to determine the effect of the compound of the present invention on the expression of tau and β-amyloid, Western Blot techniques were used. […] For the Western Blot studies, the protein expression was evaluated using the primary antibodies anti-β-amyloid 6E10 at a 1:500 dilution, anti-Tau AT8 (phosphorylated Tau at Ser 202, 1:1000 dilution) and anti-Tau AT100 (phosphorylated Tau at Thr 212 and Ser 214, 1:1000 dilution). […]
(§3) For the Western Blot assays, the neuronal cultures treated with the compound of the present invention were washed with cold PBS and lysed in 50 mM Tris-HCl buffer (pH 7.4), which contains 150 mM NaCl, 1 mM EDTA, 1% Triton X-100, 2 mM DTT, 2.5 mM PMSF, 40 mg/ml aprotinin, 4 mg/ml leupeptin, 5 mM NaF, 1 mM Na3VO4, 1 mg/ml pepstatin A and 1 mg/ml benzamidine. The total protein concentration was determined by Bradford's method, using bovine albumin as the standard. […]

[2] = test system: phosphorylated Tau at Ser 202; test: Western Blot of phosphorylated tau at Ser 202 (AT8 antibody) in cortical neurons from triple transgenic mice; type: cell-based; settings: 10 μM gambierol between days 3 and 7 of culture; 3×Tg cultures; p<0.05, n=3
Text: as §1, §2, §3

[3] = test system: phosphorylated tau at residue Ser 202; test: Western Blot of baseline phosphorylated tau at Ser 202 in control neurons from non-transgenic mice; type: cell-based
Method: (§4) In order to determine the effect of gambierol on the baseline phosphorylation of tau, Western Blot techniques were used. An in vitro cortical nueron model obtained from non-transgenic mice was used. The neuronal cultures and the processing of the samples were performed in the same manner as in the preceding example. The data obtained were corrected with the quantity of β-actin as a function of the protein content of the samples.

[4] = test system: extracellular β-amyloid peptide (β-amyloid 1-42 or β-amyloid 1-40); test: ELISA of extracellular β-amyloid in culture medium of cortical neurons; type: cell-based, mice; settings: triple transgenic cultures treated with gambierol compared to those not treated
Method: The levels of extracellular β-amyloid in the culture medium of cortical neurons obtained from triple transgenic mice or from control mice treated with gambierol were determined by means of commercial ELISA kits for the detection of β-amyloid 1-42 or β-amyloid 1-40, following the manufacturer's recommended instructions (Covance). These kits are composed of plates treated with antibodies which capture the β-amyloid peptide at the amino-terminal end thereof. The standards with known quantities of β-amyloid, and the culture medium collected from the neuronal preparations with unknown quantities of β-amyloid, were added to the wells and incubated. The plates were washed in order to eliminate the unbound peptide and incubated for 2 hours in the presence of an antibody that binds to the carboxyl-terminal end of the β-amyloid peptide. Subsequently, the plates were washed and incubated with a peroxidase-conjugated secondary antibody. […] The optical density was measured by the absorbance at 495 nm, and a straight-line pattern was obtained (FIG. 4) with the quantities of β-amyloid added, wherefrom the quantity of β-amyloid in the culture medium collected from the neuronal preparations treated with the compounds of the present invention could be extrapolated (FIG. 5).

β-amyloid = test: Western Blot of intracellular β-amyloid (6E10 antibody) in cortical neurons from triple transgenic mice; type: cell-based; settings: 10 μM gambierol between days 3 and 7 of culture; 3×Tg-AD neocortical cultures
Text: as §1, §2, §3

total tau = test: Western Blot of baseline total tau (Tau46 antibody) in control neurons from non-transgenic mice; type: cell-based
Method: as §4

cortical neurons = test: Cell viability, Alamar Blue fluorescence assay in primary cortical cultures; type: cell-based, mice; settings: up to a concentration of 20 μM
Text: (§5) In order to perform the experiments of the present invention, one of the following were used: an in vitro cortical neuron model with simultaneous overexpression of tau and β-amyloid obtained from an Alzheimer's disease model in triple transgenic mice (3×Tg−AD or 3×Tg), obtainable by means of the process explained in international application WO2003/053136 and provided by the holders of said application, or an in vitro cortical neuron model obtained from non-transgenic mice (No Tg). The triple transgenic neuronal model presents simultaneous overexpression of the human transgenes for presenilin (PS1M146V), the β-amyloid precursor protein (APPSwe) and the tau protein (tauP301L), which leads to an Alzheimer's model with overexpression of β-amyloid and hyperphosphorylation of tau.
(§6) The primary cortical cultures were obtained from 3×Tg−AD mice embryos of 15-17 days of gestation and the wild cultures were obtained from control non-3×Tg−AD mice embryos of the same strain. The effect of the compound used in this invention on the cell viability was determined by means of a fluorescence assay using the Alamar Blue viability indicator. In order to perform the assay, primary cortical cultures seeded in 96-well plates were used. The neuronal cells were incubated with the compound of the present invention, which was dissolved in dimethyl sulfoxide (DMSO) and added to the culture medium at different concentrations, and the effect thereof on the neuronal viability was determined at different times of treatment in vitro. The maximum concentration of gambierol evaluated in vitro was 20 μM and the concentration of Alamar Blue was 10%. The reaction volume used was 200 μl. The fluorescence was measured at wavelengths of 530 nm (excitation) and 590 nm (emission).

[5] = as above; type: cell-based, mice; settings: mouse, primary cortical neuron cultures from mouse embryos, 72 hours in culture, mean ± standard error, three experiments, read-out: Viability of cortical neurons, % with respect to the control
Text: as §5, §6

[6] = 10 μM gambierol, mean ± standard error, two experiments

## C=CC/C=C\C=C/C1OC2CC3OC4CCC5OC6CC7(C)OC8(C)C(O)CC(CCCO)OC8CC7OC6CC5OC4(C)CC3(C)OC2C=CC1(C)O (stereo not drawn) [gambierol]
[1]
  Phosphorylated tau at Thr 212 and Ser 214 (AT100, Western Blot), in words: significant decrease; also recorded: reduces
[2]
  Phosphorylated tau at Ser 202 (AT8, Western Blot), in words: significant decrease; also recorded: reduces
[3]
  Baseline level of phosphorylated tau at residue Ser 202 in control neurons (in words): did not affect
[3]; [6]
  Levels of phosphorylated tau at residue Ser 202 in control neurons, % with respect to the control: 107 ± 8.1%
[4]
  Levels of extracellular β-amyloid peptide secreted into the culture medium (in words): decrease
β-amyloid
  Overexpression of intracellular β-amyloid (6E10, Western Blot), in words: significant decrease; also recorded: reduces
Total tau
  Baseline quantity of total tau in control neurons (in words): did not affect
Total tau; [6]
  Baseline levels of total tau in control neurons, % with respect to the control: 111 ± 3.9%
Cortical neurons
  Effect on cell viability of cortical neuronal cultures (in words): does not cause a reduction in the viability; also recorded: did not modify the cell viability
[5]; 0.25 μM gambierol
  viability at 72 h, 0.25 μM: 103 ± 5.2%
[5]; 0.5 μM gambierol
  viability at 72 h, 0.5 μM: 110 ± 1.4%
[5]; 1 μM gambierol
  viability at 72 h, 1 μM: 105 ± 6.3%
[5]; 5 μM gambierol
  viability at 72 h, 5 μM: 106 ± 4.7%
[5]; 10 μM gambierol
  viability at 72 h, 10 μM: 105 ± 5.8%
[5]; 20 μM gambierol
  viability at 72 h, 20 μM: 102 ± 3.8%
